In ChEMBL document CHEMBL1159333, “Halogenated metabolites from the new Okinawan red alga Laurencia yonaguniensis” (J Nat Prod, 2002):
Activity calls are given as the source filed them. The rule behind the calls is not given here.

Columns and labels:
[1] = Toxicity against Artemia salina nauplii after 24 hrs; format: organism-based; settings: in vivo
Escherichia coli = assay: Antibacterial activity against Escherichia coli at 100 ug/disk after 24 hrs by paper disk diffusion assay; format: functional, organism-based
Halomonas aquamarina = assay: Antibacterial activity against Alcaligenes aquamarinus at 100 ug/disk after 24 hrs by paper disk diffusion assay; format: functional, organism-based; settings: Vreelandella aquamarina

SMILES	LC50 at 24 h [1] [µM]	Activity (Escherichia coli)	Activity (Halomonas aquamarina)
CC1(C)[C@H](Br)C[C@H](O)[C@]1(C)[C@@]1(O)CC[C@]2(C)[C@@H](Br)CC[C@@](C)(O)[C@@]2(O)C1 [NEOIRIETETRAOL]	40.1	Active	Active
C#C/C=C\C[C@@H]1O[C@H](/C=C/C)C/C=C\C[C@@H]1Cl	467	inactive	inactive
